# Measurements: ChEMBL document CHEMBL1155710, “New bioactive sulfated metabolites from the Mediterranean tunicate Sidnyum turbinatum” (J Nat Prod, 2001)
# Tested on: WEHI-164
# Assay: Antiproliferative activity against mouse WEHI164 cells assessed as cell viability after 96 hrs by MTT assay
# Format: functional, cell-based
# Conditions: WEHI-164, 96 h
row,Compound,IC50 [µg/mL]
1,CC(C)CCCC(CCCC(C)CCCC(C)CCOS(=O)(=O)[O-])COS(=O)(=O)[O-].[Na+].[Na+] (stereo not given),300
2,CC(C)CCCC(CCCC(C)CCC[C@H](C)COS(=O)(=O)[O-])COS(=O)(=O)[O-].[Na+].[Na+] (stereo not given in full),230
3,CCCCCCOS(=O)(=O)[O-].[Na+] [SODIUM HEXYL SULFATE],150
4,CCCCCCCCCCCCCCCCCCOS(=O)(=O)[O-].[Na+] [SODIUM OCTADECYL SULFATE],410
5,CCCCCCCCCCCCCCCCCOS(=O)(=O)[O-].[Na+] [SODIUM HEPTADECYL SULFATE],400
